This passage reports EC50 results from patent US9376392B2, “2-(tert-butoxy)-2-(7-methylquinolin-6-yl) acetic acid derivatives for treating AIDS” (Gilead Sciences, Inc., priority 2012, dated 2016).

SMILES strings stand for the structures.

One assay relates to HIV-IIIb (MT-4 cells). Briefly: Test A: Antiviral Assays in MT4 Cells. It is filed as cell-based. Particulars: MT4, 120 h, MT-4 cells infected with HIV-IIIb, 5 days of incubation, CellTiter-Glo readout. As to the method: The antiviral properties of a compound disclosed herein may be determined using Test A described below.
Test A: Antiviral Assays in MT4 Cells
For the antiviral assay utilizing MT-4 cells, 0.4 μL of […] test concentration of 3-fold serially diluted compound in DMSO was added to 40 μL of cell growth medium (RPMI 1640, 10% FBS, 1% penicillin/Streptomycin, 1% L-Glutamine, 1% HEPES) in each well of 384-well assay plates (10 concentrations) in quadruplicate.
1 mL aliquots of 2×10e6 MT-4 cells are pre-infected for 1 and 3 hrs respectively, @ 37° C. with 25 μL (MT4) or of either cell growth medium (mock-infected) or a fresh 1:250 dilution of an HIV-IIIb concentrated ABI stock (0.004 m.o.i. for MT4 cells). Infected and uninfected cells are diluted in cell growth medium and 35 μL of 2000 (for MT4) cells is added to each well of the assay plates.
Assay plates were then incubated in a 37° C. incubator. After 5 days of incubation, […] 2× concentrated CellTiter-Glo™ Reagent (catalog #G7573, Promega Biosciences, Inc., Madison, Wis.) was added to each well of the assay plate. Cell lysis was carried out by incubating at room temperature for 2-3 min and then chemiluminescence was read using the Envision reader (PerkinElmer).
For the compound `CNc1ccc2c(-c3ccc4c5c(ccnc35)CCO4)c([C@H](OC(C)(C)C)C(=O)O)c(C)cc2n1` (atropisomer, axis not shown) [Example 46, (S)-2-tert-Butoxy-2-((R)-5-(2,3-dihydropyrano[4,3,2-de]quinolin-7-yl)-7-methyl-2-(methylamino)quinolin-6-yl)acetic acid], the EC50 stood at 265 nM. In other words, the sub-micromolar range.
In the case of `Cc1cc2c(ccc(=O)n2Cc2cccc(C(F)(F)F)c2)c(-c2ccc(Cl)cc2)c1[C@H](OC(C)(C)C)C(=O)O` [Example 7, (S)-2-tert-Butoxy-2-(5-(4-chlorophenyl)-7-methyl-2-oxo-1-(3-(trifluoromethyl)benzyl)-1,2-dihydroquinolin-6-yl)acetic acid], the EC50 was determined as 187 nM. This EC50 and that of the compound before are within 1.5-fold of each other.
The same measure, in the same setting: as for `Cc1cc2c(ccc(=O)n2Cc2cccnc2)c(-c2ccc3c4c(ccnc24)CCO3)c1[C@H](OC(C)(C)C)C(=O)O` (atropisomer, axis not shown) [Example 22, (S)-2-tert-Butoxy-2-((R)-5-(2,3-dihydropyrano[4,3,2-de]quinolin-7-yl)-7-methyl-2-oxo-1-(pyridin-3-ylmethyl)-1,2-dihydroquinolin-6-yl)acetic acid], the figure is 318 nM; as for `Cc1cc2c(ccc3cnnn32)c(-c2ccc3c4c(ccnc24)CCO3)c1[C@H](OC(C)(C)C)C(=O)O` (atropisomer, axis not shown) [Example 55, (S)-2-tert-butoxy-2-((R)-6-(2,3-dihydropyrano[4,3,2-de]quinolin-7-yl)-8-methyl-[1,2,3]triazolo[1,5-a]quinolin-7-yl)acetic acid], 78.4 nM.
Same read-out and setting: as for `Cc1cc2nc(OCc3ccccc3)ccc2c(-c2ccc3c4c(ccnc24)CCO3)c1[C@H](OC(C)(C)C)C(=O)O` (atropisomer, axis not shown) [Example 12, (S)-2-((R)-2-(Benzyloxy)-5-(2,3-dihydropyrano[4,3,2-de]quinolin-7-yl)-7-methylquinolin-6-yl)-2-tert-butoxyacetic acid], the figure is 50 nM; as for `Cc1cc2c(ccc(=O)n2Cc2ccncc2)c(-c2ccc3c4c(ccnc24)CCO3)c1[C@H](OC(C)(C)C)C(=O)O` (atropisomer, axis not shown) [Example 21, (S)-2-tert-Butoxy-2-((R)-5-(2,3-dihydropyrano[4,3,2-de]quinolin-7-yl)-7-methyl-2-oxo-1-(pyridin-4-ylmethyl)-1,2-dihydroquinolin-6-yl)acetic acid], 755 nM.
Same read-out and setting: the value for `Cc1cc2c(ccc(=O)n2CCCc2ccccc2)c(-c2ccc3c4c(ccnc24)CCO3)c1[C@H](OC(C)(C)C)C(=O)O` (atropisomer, axis not shown) [Example 24, (S)-2-tert-Butoxy-2-((R)-5-(2,3-dihydropyrano[4,3,2-de]quinolin-7-yl)-7-methyl-2-oxo-1-(3-phenylpropyl)-1,2-dihydroquinolin-6-yl)acetic acid] was 687 nM; that for `Cc1cc2c(ccc(=O)n2Cc2cc(C(F)(F)F)cc(C(F)(F)F)c2)c(-c2ccc3c4c(ccnc24)CCO3)c1[C@H](OC(C)(C)C)C(=O)O` (atropisomer, axis not shown) [Example 20, (S)-2-((R)-1-(3,5-Bis(trifluoromethyl)benzyl)-5-(2,3-dihydropyrano[4,3,2-de]quinolin-7-yl)-7-methyl-2-oxo-1,2-dihydroquinolin-6-yl)-2-tert-butoxyacetic acid] was 90 nM.
Consider `Cc1cc2c(ccc(=O)n2Cc2ccc(Oc3ccccc3)cc2)c(-c2ccc3c4c(ccnc24)CCO3)c1[C@H](OC(C)(C)C)C(=O)O` (atropisomer, axis not shown) [Example 32, (S)-2-tert-Butoxy-2-((R)-5-(2,3-dihydropyrano[4,3,2-de]quinolin-7-yl)-7-methyl-2-oxo-1-(4-phenoxybenzyl)-1,2-dihydroquinolin-6-yl)acetic acid], for which the EC50 is 3060 nM.
Compound `Cc1cc2c(ccc(=O)n2Cc2cccc(C(F)(F)F)c2)c(-c2ccc3c4c(ccnc24)CCO3)c1[C@H](OC(C)(C)C)C(=O)O` (atropisomer, axis not shown) [Example 5, (S)-2-tert-Butoxy-2-((R)-5-(2,3-dihydropyrano[4,3,2-de]quinolin-7-yl)-7-methyl-2-oxo-1-(3-(trifluoromethyl)benzyl)-1,2-dihydroquinolin-6-yl)acetic acid] displayed an EC50 of 30.7 nM.
The same measure, in the same setting: as for `Cc1cc2nc(C#N)ccc2c(-c2ccc3c4c(ccnc24)CCO3)c1[C@H](OC(C)(C)C)C(=O)O` (atropisomer, axis not shown) [Example 50, (S)-2-tert-Butoxy-2-((R)-2-cyano-5-(2,3-dihydropyrano[4,3,2-de]quinolin-7-yl)-7-methylquinolin-6-yl)acetic acid], the figure is 166 nM; as for `Cc1cc2nc(C(C)F)ccc2c(-c2ccc3c4c(ccnc24)CCO3)c1[C@H](OC(C)(C)C)C(=O)O` (stereo partly drawn) [Example 53, (2S)-2-tert-Butoxy-2-((5R)-5-(2,3-dihydropyrano[4,3,2-de]quinolin-7-yl)-2-(1-fluoroethyl)-7-methylquinolin-6-yl)acetic acid], 22.1 nM.
On the same count and under the same terms, the value for `Cc1cc2nc(N)ccc2c(-c2ccc3c4c(ccnc24)CCO3)c1[C@H](OC(C)(C)C)C(=O)O` (atropisomer, axis not shown) [Example 47, (S)-2-((R)-2-Amino-5-(2,3-dihydropyrano[4,3,2-de]quinolin-7-yl)-7-methylquinolin-6-yl)-2-tert-butoxyacetic acid] was 292 nM; that for `Cc1cc2nc(OCc3ccccc3OC(F)(F)F)ccc2c(-c2ccc3c4c(ccnc24)CCO3)c1[C@H](OC(C)(C)C)C(=O)O` (atropisomer, axis not shown) [Example 19, (S)-2-tert-Butoxy-2-((R)-5-(2,3-dihydropyrano[4,3,2-de]quinolin-7-yl)-7-methyl-2-(2-(trifluoromethoxy)benzyloxy)quinolin-6-yl)acetic acid] was 70 nM; that for `Cc1cc2c(ccc(=O)n2Cc2cccc3c2cnn3C)c(-c2ccc3c4c(ccnc24)CCO3)c1[C@H](OC(C)(C)C)C(=O)O` (atropisomer, axis not shown) [Example 28, (S)-2-tert-Butoxy-2-((R)-5-(2,3-dihydropyrano[4,3,2-de]quinolin-7-yl)-7-methyl-1-((1-methyl-1H-indazol-4-yl)methyl)-2-oxo-1,2-dihydroquinolin-6-yl)acetic acid] was 45.8 nM.
`Cc1cc2c(ccc(=O)n2Cc2cncc(C(F)(F)F)c2)c(-c2ccc3c4c(ccnc24)CCO3)c1[C@H](OC(C)(C)C)C(=O)O` (atropisomer, axis not shown) [Example 31, (S)-2-tert-Butoxy-2-((R)-5-(2,3-dihydropyrano[4,3,2-de]quinolin-7-yl)-7-methyl-2-oxo-1-((5-(trifluoromethyl)pyridin-3-yl)methyl)-1,2-dihydroquinolin-6-yl)acetic acid]: the midpoint of the response, the EC50, lay at 68.2 nM.
Same read-out and setting: the value for `Cc1cc2nc(OCc3cccc(OC(F)(F)F)c3)ccc2c(-c2ccc3c4c(ccnc24)CCO3)c1[C@H](OC(C)(C)C)C(=O)O` (atropisomer, axis not shown) [Example 14, (S)-2-tert-Butoxy-2-((R)-5-(2,3-dihydropyrano[4,3,2-de]quinolin-7-yl)-7-methyl-2-(3-(trifluoromethoxy)benzyloxy)quinolin-6-yl)acetic acid] was 217 nM; that for `Cc1cc2nc(OCc3cccc(S(C)(=O)=O)c3)ccc2c(-c2ccc3c4c(ccnc24)CCO3)c1[C@H](OC(C)(C)C)C(=O)O` (atropisomer, axis not shown) [Example 4, (S)-2-tert-Butoxy-2-((R)-5-(2,3-dihydropyrano[4,3,2-de]quinolin-7-yl)-7-methyl-2-(3-(methylsulfonyl)benzyloxy)quinolin-6-yl)acetic acid] was 13.6 nM; that for `Cc1cc2c(ccc(=O)n2Cc2cccc(S(C)(=O)=O)c2)c(-c2ccc3c4c(ccnc24)CCO3)c1[C@H](OC(C)(C)C)C(=O)O` (atropisomer, axis not shown) [Example 2, (S)-2-tert-Butoxy-2-((R)-5-(2,3-dihydropyrano[4,3,2-de]quinolin-7-yl)-7-methyl-1-(3-(methylsulfonyl)benzyl)-2-oxo-1,2-dihydroquinolin-6-yl)acetic acid] was 460 nM.

Staying with this assay, now noted: MT-4 cells infected with HIV-IIIb, 5 days of incubation, CellTiter-Glo readout.
Take `CCC(C)(CC)O[C@H](C(=O)O)c1c(C)cc2nc(C)ccc2c1-c1ccc2c3c(ccnc13)CCO2` (atropisomer, axis not shown) [Example 41, (S)-2-((R)-5-(2,3-Dihydropyrano[4,3,2-de]quinolin-7-yl)-2,7-dimethylquinolin-6-yl)-2-(3-methylpentan-3-yloxy)acetic acid]: the EC50 stood at 39 nM.
Still for that read-out and setting: the value for `CCC(C)(C)O[C@H](C(=O)O)c1c(C)cc2nc(C)ccc2c1-c1ccc2c3c(ccnc13)CCO2` (atropisomer, axis not shown) [Example 45, (S)-2-((S)-5-(2,3-Dihydropyrano[4,3,2-de]quinolin-7-yl)-2,7-dimethylquinolin-6-yl)-2-(tert-pentyloxy)acetic acid] was 13200 nM.
Still for that read-out and setting: as for `CCCC(C)(C)O[C@H](C(=O)O)c1c(C)cc2nc(C)ccc2c1-c1ccc2c3c(ccnc13)CCO2` (atropisomer, axis not shown) [Example 40, (2S)-2-((S)-5-(2,3-Dihydropyrano[4,3,2-de]quinolin-7-yl)-2,7-dimethylquinolin-6-yl)-2-(2-methylpentan-2-yloxy)acetic acid], the figure is 2760 nM.
